Measurements taken from article PMC6522510 (Nature Communications, 2019).
Read-outs that look alike come from different tables or passages of the source.

How the values were obtained:
Set-up in all cases: species or system AML cell lines (8); Primary HTS, single concentration about 10 uM, Cell Titer Glo viability; log10 luminescence, per cent inhibition relative to cycloheximide control
Conditions in all cases: 72 h, relative to cycloheximide control, log10 luminescence, inhibitor
CHRF288-11 = system: CHRF288-11
CMK = system: CMK
MV4-11 = system: MV4-11
MOLM-13 = system: MOLM-13
U937 = system: U937
M07e = system: M07e
CMS = system: CMS
ML-2 = system: ML-2

Compound	CHRF288-11 %inh (CHRF288-11) [%]	CMK %inh (CMK) [%]	MV4-11 %inh (MV4-11) [%]	MOLM-13 %inh (MOLM-13) [%]	U937 %inh (U937) [%]	M07e %inh (M07e) [%]	CMS %inh (CMS) [%]	ML-2 %inh (ML-2) [%]	CHRF288-11 %inh (CHRF288-11; CHRF288-11 %inh, 10 µM) [%]	CMK %inh (CMK; CMK %inh, 10 µM) [%]	MV4-11 %inh (MV4-11; MV4-11 %inh, 10 µM) [%]	MOLM-13 %inh (MOLM-13; MOLM-13 %inh, 10 µM) [%]	U937 %inh (U937; U937 %inh, 10 µM) [%]	M07e %inh (M07e; M07e %inh, 10 µM) [%]	CMS %inh (CMS; CMS %inh, 10 µM) [%]	ML-2 %inh (ML-2; ML-2 %inh, 10 µM) [%]
O=C(Nc1n[nH]c2nc(-c3ccc(O)cc3)c(Br)cc12)C1CC1 [SJ000573153-1, AN100368-079A1]	61.88	121.4	59.64	85.66	31.9	20.28	105	13.84								
c1ccc(Oc2ccc(Nc3ncc(-c4ccccc4)o3)cc2)cc1 [SJ000573154-1, U15924/95/2]	-6.587	-2.277	-2.884	-2.365	3.231	-0.6223	-3.51	0.5718								
COc1cccc(-n2ncc3c(N/N=C/c4ccc(C(=O)NCCN(C)C)cc4)ncnc32)c1 [SJ000573155-1, U16945/190/1]	128.6	38.62	45.9	33.75	26.01	23.03	51.58	12.67								
CCn1c(-c2nonc2N)nc2ccccc21 [SJ000573156-1, U17602/18/1 | JT100597-005A1]	-4.898	-4.724	-3.157	-2.502	-1.491	0.4432	-3.86	2.051								
Cc1cc(-c2ccco2)cc(C)c1/C=C/c1cncc(-c2nn[nH]n2)c1 [SJ000573157-1, T209/165/1]	6.913	-3.964	-0.5767	-1.72	-2.587	4.709	1.933	0.8109								
COC(=O)Nc1nc2ccc(Oc3ccc(NC(=O)Nc4cccc(Cl)c4)cc3)cc2[nH]1 [SJ000573158-1, T278/6/1]	9.893	60.27	87.76	98.07	93.62	46.36	11.78	61.89								
ON=C1CCc2cc(-c3nc(C4CCNCC4)[nH]c3-c3ccncc3)ccc21 [SJ000573159-1, DD48690-004A1]	-1.561	-2.711	-4.441	2.332	-1.918	1.161	1.757	3.813								
O=C(O[C@H]1CN[C@H](C#Cc2cc3ncnc(Nc4ccc5c(ccn5Cc5cc(F)ccc5F)c4)c3s2)C1)N1CCOCC1 [SJ000573160-1, U20298/150/2]	10.62	5.697	8.297	10.52	14.13	-0.7728	12.05	4.843								
Nc1nonc1-c1nc2cnccc2n1C1CC1 [SJ000573161-1, SD100950-085A1]	4.079	26.4	17.34	2.819	17.71	-4.33	4.949	6.372								
COC(=O)Nc1nc2cc(Oc3ccc(NC(=O)Nc4cccc(C(=O)O)c4)cc3)ccc2[nH]1 [SJ000573163-1, T261/87/3]	17.31	83.28	11.57	34.2	31.9	13.83	3.532	30.21								
NC(=O)c1cccc(Nc2nccc(Nc3cccc(F)c3)n2)c1 [SJ000573164-1, R5869/121/5]	8.575	19.08	21.87	57.29	1.036	12.07	5.376	3.111								
COC(=O)Nc1nc2cc(Oc3ccc(NC(=O)Nc4ccccc4)cc3)ccc2[nH]1 [SJ000573165-1, T261/64/2]	29.47	109.7	69.12	87.75	81.37	91.37	99.63	57.46								
Cc1nnc(-c2ccc(C)c(-c3ccc(C(=O)NCc4ccc(Cl)cc4)cc3)c2)o1 [SJ000573166-1, R5419/62/6]	-0.1255	2.525	-0.3161	2.185	3.066	6.199	4.153	2.787								
NC(=O)c1sc(-n2cnc3ccc(C(F)(F)F)cc32)cc1OCc1ccccc1Br [SJ000573167-1, U19121/196/1]	1.336	-1.461	1.988	2.5	43.5	5.031	15.36	22.34								
Nc1nccc(-c2c(-c3ccc(F)cc3)ncn2C2CCNCC2)n1 [SJ000573168-1, JB-19127-269D | LD19161-244A1]									34.51	44.14	77.89	64.89	27.96	19.95	7.951	22.46
Nc1nccc(-c2c(-c3ccc(F)cc3)ncn2C2CCNCC2)n1 [SJ000573168-2, JB-19127-269D | LD19161-244A1]						16.87			101.4	34.82	54.74	78.79	15.47		15.45	28.94
CC1=C(C(=O)Nc2ccc3[nH]nc(C)c3c2)C(c2ccc(C(F)(F)F)cc2)CC(=O)N1 (stereo not drawn) [SJ000573169-1, SD204573-190A1]	46.87	106.1	29.81	15.8	19.8	28.71	35.88	13.81								
OCCCNc1nccc(-c2c(-c3ccc(F)cc3)nn3cc(C(F)(F)F)ccc23)n1 [SJ000573170-1, R5361/115/1]	127.7	125	-0.4985	-2.069	1.034	-1.662	105.9	-1.781								
c1ccc(COc2ccc(Nc3ncnc4ccc(-c5ccco5)cc34)cc2)cc1 [SJ000573171-1, C3157/71/1]	-4.196	6.655	14.65	27.04	10.84	-0.2498	1.088	3.492								
O=C1NC(=O)C(c2cccc(Cl)c2)=C1Nc1ccc(O)c(Cl)c1 [SJ000573172-1, RS98844-062A3]	12.93	35.38	8.124	11.18	3.736	6.042	2.425	2.635								
c1ccc(-c2nc3n(c2-c2ccc4c(c2)OCO4)CCC3)nc1 [SJ000573174-1, JB42196-142B1]	104.5	48.28	4.462	37.41	1.96	7.377	32.28	5.523								
